Data taken from patent US5242915A, “Formulation useful for the inhibition of massive release of cerebral glutamate” (Shionogi & Co., Ltd., priority 1991, dated 1993).
“Also recorded” adds a separate entry of the source. Read-outs that look alike come from different tables or passages of the source.

How the values were obtained:
[1] = cited from earlier work; for antihypertensive, peripheral, cerebral and coronary vasodilating actions: background statement
[2] = system: vascular smooth muscle; conditions: background statement; cited from earlier work
[3] = system: cerebral release of glutamate; conditions: comparison, no data shown, cited from earlier work
[4] = system: DBA/2 Mouse; assay: Ultrasonically (sound)-induced convulsion in DBA/2 mouse; format: in vivo, mouse (DBA/2); conditions: for ED50: Mus musculus, one hour before ultrasonic treatment (70-90 db, 1 min), probit method, read-out: ED50 (anti-convulsant effect); for anti-convulsant effect, in words: sound/ultrasonically induced convulsion; for anticonvulsive effect (general statement): FIG. 3 and Table 1
Description: Animal: Ten mice consisting of five each of male and female DBA/2 mice (weighing from 7 to 11 g) bred at the Aburahi Laboratories (Shionogi) at three weeks of age were used in a group.
One hour before the ultrasonic treatment, each mouse of test group orally received S-312-d as a solution in polyethylene glycol 400. To each mouse of control groups was orally administered either of Nicardipine, as a solution in polyethylene glycol 400, S-312-1, Nimodipine or Flunarizine, as a suspension in gum arabic. Convulsion was induced in mouse by an ultrasonic treatment (70-90 db, 1 min) and the number of tetanic death was observed. ED50 value of anti-convulsant effect of each compound was calculated by probit method using the […] as an indication.

[5] = NMDA channel antagonist; cited from earlier work
[6] = system: massive release of cerebral glutamate in hippocampal CAI region; assay: Effect on the ischemic release of glutamate in hippocampal CAI region (BCAO, microdialysis); format: in vivo, rat (SHRSP, stroke-prone spontaneously Hypertensive Rats); conditions: intraduodenal, 40 min before BCAO, S-312-d 0.3 mg/kg; for inhibition of the massive release of glutamate during BCAO: nilvadipine 3 mg/kg, nimodipine 3 mg/kg, FIG. 2
Description: Thus, an experimental cerebral ischemia was caused in SHRSPs by the occlusion of both common carotid arteries (hereinafter, referred to as BCAO). During the ischemic period, a massive release of glutamate in hippocampal CAI region was observed (see, FIG. 1).
Reference compound: nilvadipine, and nimodipine Animal: Five male SHRSP bred at the Aburahi Laboratories (Shionogi) at ten to twelve weeks of age were used in a group. Animals were fed CA-1 (Nihon Clea) and tap water ad libitum.
Hippocampus CAI region was made ischemia by the occlusion of both common carotid arteries (BCAO) into rats as follows:
Rats were anesthetized with halothane (3%) and the cervical region proximal to abdomen was incised to expose the common carotid arteries. Both arteries were occluded with nylon threads with each end exposed at the back of the neck through either of two holes of a tube (double lumen PE tube, Natsume Seisakusho, & Co.). Occlusion was induced in the both common carotid arteries by pulling strongly each exposed end of threads. BCAO was stopped by gradually pulling down the each end of threads passed under arteries proximal to abdomen. During the ischemic period, the halothane inhalation was stopped.
The determination of the regional cerebral blood flow was conducted using a laser doppler tissue flow meter (LFA-2, Biomedical Science, Japan) with a needle-type sensor (450 μm in diameter) inserted into the hippocampal CA1 region opposite to the site where a microdialysis probe had been fixed. The blood flow during BCAO was estimated as almost negligible on the assumption that the blood flow after the death of rat is "0".
S-312-d (0.3 mg/kg), nilvadipine (3 mg/kg), or nimodipine (3 mg/kg) was dissolved into polyethylene glycol 400 and administered into duodenum in each rat at 40 min before BCAO.
Under the anesthesia with halothane (1-2%), rats were fixed on cerebral stereotaxic frame and equipped with an artificial respirator (1 cc/100 gbw×60 times/min), while being maintained at 37 ° C by settling a heating pad beneath the lower abdominal region. A hole was drilled on the exposed skull and a microdialysis probe (CMA/10, membrane length 2 mm, BAS, Sweden) was inserted gently. Measurement was started after 3 hr from the surgery in order to avoid the influence of tissue damage. The probe was perfused with Ringer's solution at a flow rate of 2 μl/min by a microdialysis pump (CMA/100, BAS, Sweden). The dialysates were collected for each 5-min perfusion and pooled. Sampling was started at 10 min before the BCAO. BCAO was continued for 20 min when it was stopped by loosening […] threads to allow cerebral circulation. The sampling was continued for 20 min after the discontinuation of the BCAO. Samples were then subjected to quantitative analysis for glutamate without further treatments.
The concentration of glutamate was determined by HPLC substantial in accordance with the HPLC-ECD method of Donzanti et al. (Life Sci. 43: 913 (1988)) The glutamate-containing sample was reacted with o-phthlaldehyde/β-mercaptoethanol solution for 2 min and injected into a reverse-phase column and eluted under the following conditions. The eluate was then analyzed for the presence of glutamate by an electrochemical measurement of oxidation-reduction current.
Column: C 18, particle size: 3 μm, 8 cm×4.6 mm
Mobile phase: a mixture of 0.1M phosphate buffer (pH 6.4), 0.13 mM Na2 EDTA, and 22% MeOH

[7] = system: pyramidal neurons of the hippocampal CAI region; assay: Delayed neuronal death during cerebral ischemia (density of living pyramidal neurons); format: in vivo, rat (SHRSP); conditions: for Density of Neurons, animals with 40-80 n/mm / Density of Neurons, animals with 80-120 n/mm / Density of Neurons, animals with <40 n/mm / Density of Neurons, animals with >120 n/mm: 7th day; for Density of Neurons, mean ± S.E.M: normal 160 ± 9, control 69 ± 10
Protocol: Animal: eight to twelve (n=8-12) male SHRSP bred at the Aburahi Laboratories (Shionogi) were used in a group. Animals were fed CA-1 (Nihon Clea) and tap water ad libitum.
S-312-d was dissolved into polyethylene glycol 400 solution and intraperitoneally administered to a SHRSP at 60 min before the introduction of a global cerebral ischemia. Cerebral ischemia was then caused in each rat for 20 min and stopped to allow cerebral circulation in the same manner as the above Experiment 1. For the histological observation on the delayed neuronal death, a fixation of tissue was conducted by perfusing the animal from the left ventricle using 4% paraformaldehyde at a flow rate of 10 ml/min by means of perista pump (AC-2110, ATTA) on the 7th day from the ischemia. After the removal of brain, cerebral region containing hippocampus was embedded in paraffin, from which sliced preparations of 4 μm thick were prepared. Each cerebral preparation was stained with hematoxylin-eosin and the density of the living pyramidal neurons (n/mm) was determined by counting the number of neurons per 1 mm length of the hippocampal CAI region under a light microscope. The data were expressed as the mean ±S.E.M. For the purpose of comparison, SHRSPs with or without ischemic maneuvering were both treated with propylene glycol, in exactly the same manner as the above.

[8] = oral, one hour before ultrasonic treatment
[9] = treated group (I), 0.01 mg/kg i.p. 60 min before ischemia (20 min), n = 12
[10] = treated group (II), 0.1 mg/kg i.p. 60 min before ischemia (20 min), n = 13

In the case of `COC(=O)C1=C(C)Nc2scc(CC(C)C)c2C1c1cccc([N+](=O)[O-])c1` (racemic) [S-312, methyl 4,7-dihydro-3-isobutyl-6-methyl-4-(3-nitrophenyl)thieno[2,3-b]pyridine-5-carboxylate], the adverse reactions ([1]; U.S. Pat. No. 4,703,051) is listed as “lesser adverse reactions”, the “vasodilating, antihypertensive and coronary vasodilating effect” value ([1]; U.S. Pat. No. 4,703,051) is listed as “potent antihypertensive and coronary vasodilating effect” and the “antihypertensive, peripheral, cerebral and coronary vasodilating actions” value [1] is listed as “exhibit antihypertensive activity, as well as peripheral, cerebral, and coronary vasodilating actions”. The “Ca-blocking effect on vascular smooth muscle” value [2] was “selective Ca-blocking effect on vascular smooth muscle”.
In the case of `NCC(CC(=O)O)c1ccc(Cl)cc1` (stereo not shown) [Baclofen], the “effect on ischemic release of glutamate” value [3] is listed as “not the ischemic release”, the “effect on normal release of glutamate” value [3] is listed as “inhibit the normal glutamate release” and the “effect on normal release of glutamate” value ([3]; listed as baclofen) is listed as “inhibits the normal release”.
With `Fc1ccc(C(c2ccc(F)cc2)N2CCN(C/C=C/c3ccccc3)CC2)cc1` [Flunarizine] the ED50 ([4]; oral) was 48.1 mg/kg and the “anti-convulsant effect, in words” value [4] was “dose-dependent anti-convulsant effect”.
For `C[C@]12N[C@H](Cc3ccccc31)c1ccccc12` [MK-801], the “toxic effects / clinical applicability” value [5] is listed as “not clinically applicable because of serious toxic effects”.
With `COC(=O)C1=C(C)NC(C)=C(C(=O)OCCN(C)Cc2ccccc2)C1c1cccc([N+](=O)[O-])c1` (stereo not shown) [Nicardipine] the “Anticonvulsive effect (maximum), at 20-80 mg/kg” value [4, 8] was 30% and the “anticonvulsive effect (general statement)” value [4, 8] was “less than 40%”.
In the case of `COCCOC(=O)C1=C(C)NC(C)=C(C(=O)OC(C)C)C1c1cccc([N+](=O)[O-])c1` (stereo not shown) [Nimodipine, reference compound], the “inhibition of the massive release of glutamate during BCAO” value (shortened to “inhibition”) [6] is reported as “only S-312-d was significantly effective; also recorded: neither nilvadipine nor nimodipine shows significant effect”, the “Anticonvulsive effect (maximum), at 20-80 mg/kg” value [4, 8] is reported as 40% and the “anticonvulsive effect (general statement)” value [4, 8] is reported as “less than 40%”.
For `COC(=O)C1=C(C)Nc2scc(CC(C)C)c2[C@@H]1c1cccc([N+](=O)[O-])c1` [S-312-1, methyl (-)-(4R)-4,7-dihydro-3-isobutyl-6-methyl-4-(3-nitrophenyl)thieno[2,3-b]pyridine-5-carboxylate], the “Anticonvulsive effect (maximum), at 10-80 mg/kg” value ([4]; oral, 10-80 mg/kg, one hour before ultrasonic treatment) was 30% and the “anticonvulsive effect (general statement)” value [4, 8] was “less than 40%”.
For `COC(=O)C1=C(C)Nc2scc(CC(C)C)c2[C@H]1c1cccc([N+](=O)[O-])c1` [S-312-d, methyl (+)-(4S)-4,7-dihydro-3-isobutyl-6-methyl-4-(3-nitrophenyl)thieno[2,3-b]pyridine-5-carboxylate], the “effect on the normal resting release of glutamate” value [6] was “not the normal resting release; also recorded: without affecting the normal resting release of glutamate; also recorded: not the normal cerebral release of glutamate”, the “inhibition” value [6] was “only S-312-d was significantly effective; also recorded: inhibited the massive release of glutamate during BCAO; also recorded: inhibits specifically the massive release of glutamate during cerebral ischemia; also recorded: inhibiting specifically a massive release of cerebral glutamate from hippocampus” and the “inhibition” value ([6]; listed as S-312-2) was “the massive release of cerebral glutamate”. For the same compound, the ED50 ([4]; oral) was 17.6 mg/kg, the “anti-convulsant effect, in words” value [4] was “inhibits sound-induced convulsion in DBA/2 mouse; also recorded: dose-dependent anti-convulsant effect; also recorded: potent inhibitory effect on a convulsion induced by sound stimulation in DBA/2 mice” and the “anti-convulsant effect, in words” value ([4]; listed as S-312-2) was “inhibit the both of a) the sound-induced convulsion”. The “protection of cerebral neurons against ischemic necrosis” value ([7]; pretreatment i.p., Table 2) was “significantly effective for the protection of cerebral neurons against ischemic necrosis of cells”, the “Density of Neurons, animals with 40-80 n/mm” value [7, 9] was 4 and the “Density of Neurons, animals with 80-120 n/mm” value [7, 9] was 2. The “Density of Neurons, animals with <40 n/mm” value [7, 9] was 3, the “Density of Neurons, animals with >120 n/mm” value [7, 9] was 3 and the “Density of Neurons, mean ± S.E.M” value ([7]; treated group (I), 0.01 mg/kg i.p., n = 12, p < 0.01 vs normal group) was 73 ± 12 n/mm. The “Density of Neurons, animals with 40-80 n/mm” value [7, 10] was 1, the “Density of Neurons, animals with 80-120 n/mm” value [7, 10] was 4 and the “Density of Neurons, animals with <40 n/mm” value [7, 10] was 2. The “Density of Neurons, animals with >120 n/mm” value [7, 10] was 6, the “Density of Neurons, mean ± S.E.M” value ([7]; treated group (II), 0.1 mg/kg i.p., n = 13, p < 0.01 vs control group) was 114 ± 17 n/mm and the “antihypertensive, peripheral, cerebral and coronary vasodilating actions” value [1] was “exhibit antihypertensive activity, as well as peripheral, cerebral, and coronary vasodilating actions”. For the same compound, the “Ca-blocking effect on vascular smooth muscle” value [2] was “selective Ca-blocking effect on vascular smooth muscle”.
In the case of `COC(=O)C1=C(C#N)NC(C)=C(C(=O)OC(C)C)C1c1cccc([N+](=O)[O-])c1` (stereo not shown) [nilvadipine, reference compound], the “inhibition” value [6] is reported as “only S-312-d was significantly effective; also recorded: neither nilvadipine nor nimodipine shows significant effect”.
